US20050239889A1, “In vivo release of endogenous anti-microbial mediators by leukotriene B4 (LTB4) administration” (priority 2004, published 2005)

Key:
MIP-1β = test: Plasma MIP-1β (ELISA) after intravenous LTB4 administration to human subjects, Phase I study; type: in vivo; conditions: i.v.
Procedure: (§1) Plasma samples were obtained from 19 HIV-uninfected human volunteers taking part in a Phase I clinical study on the safety and tolerability of intravenously (i.v.) administered bolus of LTB4. In brief, 3 individuals received saline (placebo) and 16 (4 subjects/group) were administered LTB4 in doses ranging from 0.05 μg/kg to 50 μg/kg per day for 7 consecutive days. Venous blood was collected twice before injection (-5 and -2 minutes) to establish baseline values. Following the i.v. administration of saline or LTB4, blood samples were drawn at 0.5, 1, 2, 4, 6, and 24 hours post-injection into blood collection tubes, using EDTA as anti-coagulant. Immediately after blood collection, the samples were put on ice until processed. All plasma isolation procedures were carried out at 4° C. Plasma samples were stored at −80° C. until assayed by ELISA for α-Defensins (HyCult Biotechnology bv, The Netherlands) and MIP-β(Amersham/Pharmacia, Baie d'Urfé, Canada).
Considering that soluble anti-HIV factors include β-chemokines and that neutrophils are capable of producing MIP-1β, we measured the levels of this β-chemokine in plasma of individuals that received a placebo or LTB4 (same cohorts as mentioned above). Plasma samples from healthy subjects that received a placebo (n=3) or LTB4 (5 and 50 μg/kg [n=4 subjects/group]) were obtained at various time points before and after LTB4 injections. Data are expressed as mean ± […] of the mean of MIP-1β levels (pg/ml) for all subjects within each group. P values were determined by comparing the mean MIP-1β levels of each group that received LTB4 versus the placebo group at the same time points. *p<0.025. […] Plasma samples from subjects that received the 2 lowest doses of LTB4 were not tested for MIP-1β.

α-Defensins [1] = test: Plasma α-Defensins (ELISA) after intravenous LTB4 administration to human subjects, Phase I study; type: in vivo
Procedure: as §1
Healthy volunteers participating in a Phase I clinical study on the safety and tolerability of intravenously administered LTB4, were randomized into 5 groups: placebo (n=3), LTB4 0.05 μg/kg (n=4), LTB4 0.5 μg/kg (n=4), LTB4 5 μg/kg (n=4) and LTB4 50 μg/kg (n=4). LTB4 was administered once daily for 7 consecutive days and plasma samples (0-6 hours post-LTB4 administration) from all 19 volunteers were tested for the presence of α-Defensins using a commercial ELISA kit. The mean ± standard error of α-Defensins releases (ng/ml plasma) for each group are presented in FIG. 1 with statistical analysis performed using the placebos as control group. Healthy individuals received a placebo (3 subjects) or doses of LTB4 ranging form 0.05 μg/kg to 50 μg/kg (n=4 subjects/group). Plasma samples were obtained at various time points before and after LTB4 injections and the α-Defensin levels determined by ELISA. The data shown in FIG. 1 represent the mean ± standard error of α-Defensins (ng/mL plasma) of all subjects within each group. P values were determined by comparing the mean α-Defensin levels of each group that received LTB4 versus the placebo group at the same time points. *p<0.001; **p<0.05. Plasma samples obtained before placebo or LTB4 injections indicate that there were no significant differences in the basal levels of α-Defensins between the groups.

α-Defensins [2] = test: Plasma α-Defensins (ELISA) after subcutaneous LTB4 administration to monkeys; type: in vivo, Macaca fascicularis; conditions: macaques
Procedure: Two macaques (Macaca fascicularis) were used for the study. For subcutaneous injections, the areas to be injected were first shaved one day before dosing. Volumes of 0.075 mL (monkey IJI) or 0.1 mL (monkey JKN) of LTB4 solution were administered subcutaneously in the arm of the animal to compensate for slight difference between both monkeys. Venous blood samples were collected at various time points with all plasma isolation procedures performed at 4° C. Platelet-free plasma samples were stored at −80° C. until assayed for α-Defensins using a commercial ELISA kit (HyCult Biotechnology bv, The Netherlands). We next studied the change in plasmatic concentration of the antimicrobial peptides α-Defensins in monkeys following subcutaneous (s.c.) administration of LTB4. Monkeys were injected s.c. with 5,5 μg/kg or 50 μg/kg of LTB4 and blood samples were taken at various time points and used for (α-Defensins measurements in the plasma, using a commercial ELISA kit. The results obtained are presented in FIGS. 3A (5,5 μg/kg) and 3B (50 μg/kg). Two macaques (IJI and JKN) were injected subcutaneously with 5,5 μg/kg (A) or 50 μg/kg (B) of LTB4. Blood samples were collected at various time points and α-Defensins levels measured in plasma samples using a commecial ELISA kit. Overall, the data obtained indicate that α-Defensins levels in plasma remain relatively stable up to 15 minutes post-LTB4 administration. α-Defensins levels started to increase by 30 minutes and peaked at two hours post LTB4 administration. […] For monkeys that received 50 μg/kg, (α-Defensins levels remained at their highest up to 4 hours post injection, followed by a gradual decrease. In both sets (5,5 μg/kg and 50 μg/kg), the levels of α-Defensins remained above baseline values up to 6 hours following LTB4 delivery

CCCCC/C=C\C[C@@H](O)/C=C/C=C/C=C\[C@@H](O)CCCC(=O)O [LTB4, 5S,12R-dihydroxy-6,8,10,14(Z,E,E,Z)-eicosatetraenoic acid]
start of elevation in plasmatic MIP-1β levels post-LTB4 injection (MIP-1β; 5-50 μg/kg): 1 h
time of maximal plasmatic MIP-1β levels post-LTB4 injection (MIP-1β; 5-50 μg/kg): 2 h
MIP-1β plasmatic levels at 6 hours post-LTB4 administration (MIP-1β; 5-50 μg/kg, 6 hours): had returned to original levels
statistical significance of MIP-1β elevation versus placebo (MIP-1β; 5 and 50 μg/kg groups, n=4 per group, p<0.025): statistical significance was observed only for those that received the highest dose of LTB4
release of α-Defensins in plasma, dose dependence (α-Defensins [1]; i.v. bolus once daily for 7 days, 0.05 to 50 μg/kg, versus placebo group): triggered dose-dependent release of α-Defensins
increase in plasmatic α-Defensins (α-Defensins [1]; i.v., 0.5 μg/kg): although not significant, caused a measurable increase in plasmatic α-Defensins
time of maximal effect on plasmatic α-Defensins post-LTB4 administration (α-Defensins [1]; i.v., 0.5 μg/kg): two
time of peak α-Defensin levels (α-Defensins [1]; i.v., 5 μg/kg and 50 μg/kg): 2 h
time to significant increase of α-Defensin release following LTB4 injections (α-Defensins [1]; i.v., 5 μg/kg and 50 μg/kg): 30 min
peak α-Defensin levels over the placebo group (α-Defensins [1]; i.v., 5 μg/kg and 50 μg/kg, at 2 hours, p<0.001): 5-7 fold
time α-Defensin levels remained above the control levels post-LTB4 administration (α-Defensins [1]; i.v., 5 μg/kg and 50 μg/kg, p<0.05): up to 6 hours
α-Defensins levels 24 hours post-LTB4 administration (α-Defensins [1]; i.v., 24 hours): back to the pre-injection levels
α-Defensins release in plasma (α-Defensins [1]; i.v., lowest dose of LTB4 (0.05 μg/kg)): did not significantly enhanced α-Defensins release
time α-Defensins levels remained at their highest post injection (α-Defensins [2]; s.c., 50 μg/kg, followed by a gradual decrease): up to 4 hours
time of peak α-Defensins levels post LTB4 administration (α-Defensins [2]; s.c., 5,5 μg/kg or 50 μg/kg): two
time α-Defensins levels in plasma remain relatively stable post-LTB4 administration (α-Defensins [2]; s.c., 5,5 μg/kg or 50 μg/kg): up to 15 minutes
time α-Defensins levels started to increase (α-Defensins [2]; s.c., 5,5 μg/kg or 50 μg/kg): 30 min
course of α-Defensins levels after the peak (α-Defensins [2]; s.c., 5,5 μg/kg, experiment ended at hour 6): started to drop by the fourth hour and continued to do so up to hour 6
time levels of α-Defensins remained above baseline values following LTB4 delivery (α-Defensins [2]; s.c., both 5,5 μg/kg and 50 μg/kg): up to 6 hours
